Columns and labels:
[1] = tested on: myocardial ischemic rats induced by posterior pituitary injection; test: Acute myocardial ischemia induced by posterior pituitary extract injection, ECG T wave variation; format: in vivo, SD rats; conditions: for Amplitude of T wave: i.g. 5 days plus day 6, X ± SD, n = 10; for Effect against myocardial ischemia in rats induced by posterior pituitary injection: doses 0.8 g/kg puerarin, 1.12 g/kg 4ac, 1.20 g/kg 5ac, 1.28 g/kg 6ac (equivalent to 0.8 g/kg puerarin)
Experimental: Puerarin was purchased from Beijing Union Pharmaceutical Factory (PRC). Puerarin derivatives 4ac, 5ac and 6ac were supplied by The Hong Kong Polytechnic University. The puerarin was dissolved in 1:1 of PEG400 and sterilized distilled water to make 0.8 g/kg body weight, 10 ml/kg body weight solutions for i.g. feeding.
Puerarin derivative 4ac was dissolved in 1:1 of PEG400 and sterilized distilled water to make 1.12 g/kg, 10 ml/kg solution for intra-gastro (i.g.) feeding. Puerarin derivative 5ac was dissolved in 1:1 of PEG400 and sterilized distilled water to make 1.20 g/kg, 10 ml/kg solution for i.g. feeding. Puerarin derivative 6ac was dissolved in 1:1 of PEG400 and sterilized distilled water to make 1.28 g/kg, 10 ml/kg solution for ig feeding. The concentrations of each solution were selected such that 0.8 g/kg of equivalent puerarin will be administered to each animal.
Propranolol hydrochloride at 10 mg/tablet, was from the Shantou Jinshi Pharmaceuticals (PRC, batch no: 020802). Propranolol hydrochloride is a drug prescribed for myocardial ischemia. It is expected to decrease the T wave elevation in ECG during myocardial ischemia. The drug was dissolved in sterilized distilled water to make a 0.2 mg/ml, 10 ml/kg solution for i.g. feeding.
Sixty SPF grade SD rats weighing 200±20 g of both sexes were grouped evenly into six groups according to their weight and sex, and fed i.g. according to the following protocol: • a) Normal: distilled water 10 ml/kg; • b) Positive control: propranolol hydrochloride […], 10 ml/kg; • c) Puerarin solution: puerarin 0.8 g/kg, 10 ml/kg; • d) Puerarin derivative 4ac solution: 4ac 1.12 g/kg, 10 ml/kg; • e) Puerarin derivative 5ac solution: 5ac 1.20 g/kg, 10 ml/kg; • f) Puerarin derivative 6ac solution: 6ac 1.28 g/kg, 10 ml/kg.
The rats were administered the respective treatments for five consecutive days. On the sixth day, one hour after the administration of the treatment, the rats were anesthetized with 3% pentobarbital sodium at a dose of 40 mg/kg i.p. Two terminal leads were connected to the rats to record the normal electrocardiograph (ECG).
When the ECG reading became steady, 1 u/kg of posterior pituitary extract injection (obtained from the Nanjing Xintian Biochemical Pharmaceuticals Company Ltd; batch no 020601) was given intraveneously at the tail vein. Posterior pituitary extract induces acute myocardial ischemia. On ECG, the extract causes the T wave to elevate, flatten and sometimes invert. It also elevates the ST segment and lengthens the PR and QT intervals.
The ECG was recorded immediately for 30 minutes. The variations in T wave were calculated and analyzed statistically.

in vivo = test: in vivo
Experimental: Agilent 1100 HPLC, DAD diode, HP1100 chromatography workstation and Agilent XDB-C18 column (250 mm×4.6 mm D, 5 μm) were used. The pre-column is Agilent XDB-C18 column (12.5 mm×4.6 mm D, 5 μm). Gradient elution was carried according to Table 1 below: […]
Sprague-Dawley (SD) rats weighing 180±20 g, both male and female were provided by the Laboratory Animal Centre of the Guangzhou Traditional Chinese Medicine (TCM) University.
Two hundred and sixty SD rats were randomly divided into 20 groups with 13 rats in each group. The rats were fasted for one day before the test.
Puerarin, 4ac, 5ac and 6ac was dissolved in sterilized water to produce suspension of final dosage of 400 mg/kg, 560 mg/kg, 600 mg/kg and 640 mg/kg, 10 ml/kg and administered orally to the rats.
At t=10, 20, 30, 45, 60, 90, 120 min, 2 h, 4 h, 6 h, 7 h, 8 h and 12 h after administration, 3 ml of blood was collected from the femoral vein of each animal and kept in a centrifuge tube at room temperature for 0.5 h. The blood was centrifuged at 3000 r/min for 15 min and the serum was taken for analysis.
Serum (0.5 ml) was added with 0.2 ml methanol and mixed with a vortex mixer for 1 min. The mixture was then centrifuged at 3000 r/min for 15 min. The supernatant was dried by nitrogen gas flow and the residue was dissolved in 0.2 ml methanol. The mixture was again centrifuged at 10000 r/min for 10 min and the supernatant subjected to HPLC analysis.
The samples were treated, applied and as stated in section 2.2, and the serum concentration of each compound was calculated by the one-point external standard method. The calculated data were processed using the 3P97 pharmacokinetics statistics software supplied by the Mathematics Committee of the China Pharmacology Association.

[2] = 5 s after posterior pituitary injection
[3] = 15 s after posterior pituitary injection
[4] = 30 s after posterior pituitary injection
[5] = 2 min after posterior pituitary injection
[6] = 5 min after posterior pituitary injection
[7] = 10 min after posterior pituitary injection
[8] = oral suspension, SD rats, serum puerarin by HPLC, puerarin 400, 4ac 560, 5ac 600, 6ac 640 mg/kg

O=c1c(-c2ccc(O)cc2)coc2c([C@@H]3O[C@H](CO)[C@@H](O)[C@H](O)[C@H]3O)c(O)ccc12 [Puerarin]
Amplitude of T wave [1, 2]: 18.06 ± 10.09 μV | Amplitude of T wave [1, 3]: 25.69 ± 11.21 μV | Amplitude of T wave [1, 4]: 31.22 ± 14.59 μV | Amplitude of T wave [1, 5]: 39.20 ± 16.11 μV | Amplitude of T wave [1, 6]: 29.10 ± 16.23 μV | Amplitude of T wave [1, 7]: 25.01 ± 10.40 μV | Effect against myocardial ischemia in rats induced by posterior pituitary injection [1]: effective | half-life (in vivo; both, Sprague-Dawley, rat, in vivo, po, 640 mg/kg, t1/2(a) = half-life of absorption): 0.89 ± 0.189 h | half-life (in vivo; both, Sprague-Dawley, rat, in vivo, po, 640 mg/kg, t1/2(β) = half-life of clearance): 1.015 ± 0.00719 h | Pharmacokinetic compartment model fitted (3P97 software) (in vivo; oral, SD rats): two-compartment open model | AUC(0-∞) = area under concentration-time curve (in vivo; rat, in vivo, po, 640 mg/kg): 2729.94 ± 491.99 (μg/ml)min | CL = total body clearance (in vivo; rat, in vivo, po, 640 mg/kg): 0.2032 ± 0.0541 mg/kg/min/µg/mL

CC(=O)OCC1OC(c2c(O)ccc3c(=O)c(-c4ccc(O)cc4)coc23)C(OC(C)=O)C(OC(C)=O)C1OC(C)=O (stereo not shown) [Compound 4ac, 2″,3″,4″,6″-0-tetraacetylpuerarin]
Amplitude of T wave [1, 2]: 15.09 ± 7.62 μV | Amplitude of T wave [1, 3]: 23.23 ± 10.69 μV | Amplitude of T wave [1, 4]: 35.40 ± 10.93 μV | Amplitude of T wave [1, 5]: 36.51 ± 16.02 μV | Amplitude of T wave [1, 6]: 25.60 ± 14.23 μV | Amplitude of T wave [1, 7]: 25.41 ± 10.21 μV | Effect against myocardial ischemia in rats induced by posterior pituitary injection [1]: effective | C(max) relative to that of puerarin (in vivo; both, Sprague-Dawley, rat, in vivo, po): 1.90 folds | AUC compared with puerarin (t test) (in vivo; rat, in vivo, po): significantly greater | AUC relative to that of puerarin (in vivo; rat, in vivo, po): 2.24 folds | Bioavailability compared with puerarin (in vivo; rat, in vivo, po): higher than puerarin and other derivatives | Pharmacokinetic compartment model fitted (3P97 software) (in vivo; rat, in vivo, po): one-compartment open model | AUC(0-∞) = area under concentration-time curve (in vivo; rat, in vivo, po, 640 mg/kg): 6104.81 ± 275.29 (μg/ml)min | CL = total body clearance (in vivo; rat, in vivo, po, 640 mg/kg): 0.1030 ± 0.0163 mg/kg/min/µg/mL

CC(C)NCC(O)COc1cccc2ccccc12.Cl (stereo not shown) [+ve control, Propranolol hydrochloride, reference compound]
Amplitude of T wave [1, 2]: 16.11 ± 5.30 μV | Amplitude of T wave [1, 3]: 18.51 ± 9.26 μV | Amplitude of T wave [1, 4]: 22.10 ± 11.23 μV | Amplitude of T wave [1, 5]: 30.41 ± 11.58 μV | Amplitude of T wave [1, 6]: 26.62 ± 10.99 μV | Amplitude of T wave [1, 7]: 22.09 ± 11.31 μV

CC(=O)OCC1OC(c2c(OC(C)=O)ccc3c(=O)c(-c4ccc(O)cc4)coc23)C(OC(C)=O)C(OC(C)=O)C1OC(C)=O (stereo not shown) [Compound 5ac, 7,2″,3″,4″,6″-0-pentaacetylpuerarin]
Amplitude of T wave [1, 2]: 19.09 ± 6.20 μV | Amplitude of T wave [1, 3]: 29.42 ± 9.39 μV | Amplitude of T wave [1, 4]: 37.61 ± 13.43 μV | Amplitude of T wave [1, 5]: 40.11 ± 16.04 μV | Amplitude of T wave [1, 6]: 24.50 ± 13.63 μV | Amplitude of T wave [1, 7]: 24.39 ± 14.28 μV | Effect against myocardial ischemia in rats induced by posterior pituitary injection [1]: effective | Pharmacokinetic compartment model fitted (3P97 software) (in vivo; rat, in vivo, po): two-compartment open model | AUC(0-∞) = area under concentration-time curve (in vivo; rat, in vivo, po, 640 mg/kg): 4566.95 ± 762.64 (μg/ml)min | CL = total body clearance (in vivo; rat, in vivo, po, 640 mg/kg): 0.1011 ± 0.0425 mg/kg/min/µg/mL | t1/2(a) = half-life of absorption (in vivo; rat, in vivo, po, 640 mg/kg): 0.368613 ± 0.311893 h | t1/2(β) = half-life of clearance (in vivo; rat, in vivo, po, 640 mg/kg): 7.0838 ± 4.228 h

CC(=O)OC[C@H]1O[C@@H](c2c(OC(C)=O)ccc3c(=O)c(-c4ccc(OC(C)=O)cc4)coc23)[C@H](OC(C)=O)[C@@H](OC(C)=O)[C@@H]1OC(C)=O [Compound 6ac, Hexa-0-acetyl puerarin]
Amplitude of T wave [1, 2]: 16.33 ± 9.18 μV | Amplitude of T wave [1, 3]: 29.09 ± 16.50 μV | Amplitude of T wave [1, 4]: 39.12 ± 15.21 μV | Amplitude of T wave [1, 5]: 41.05 ± 15.60 μV | Amplitude of T wave [1, 6]: 29.14 ± 10.60 μV | Amplitude of T wave [1, 7]: 22.11 ± 9.81 μV | Effect against myocardial ischemia in rats induced by posterior pituitary injection [1]: effective | AUC(0-∞) = area under concentration-time curve (in vivo; [8]): 3149.69 ± 467.26 (μg/ml)min | C (max) = maximum concentration reached by the compound (in vivo; [8]): 4932.4 ± 69.5 ng/mL | CL = total body clearance (in vivo; [8]): 0.1696 ± 0.1206 mg/kg/min/µg/mL | T(peak) = time the compound takes to reach the absorption peak (in vivo; [8]): 81.39 ± 10.02 min | t1/2(a) = half-life of absorption (in vivo; [8]): 1.86617 ± 1.811 h | t1/2(β) = half-life of clearance (in vivo; [8]): 44.4162 ± 6.3323 h | Pharmacokinetic compartment model fitted (3P97 software) (in vivo; oral, SD rats): two-compartment open model
